Results: publication PMC8395935 (Medical Sciences, 2021)

Columns and labels:
[1] = tested on: CD-1 mice; assay: Intravenous injection study with multiple-time regression analysis after an acute rapamycin i.v. injection; conditions: male CD-1 mice
Method: (§1) The blood glucose was measured via the tail vein (AlphaTrak2, Abbott Laboratories, Chicago, IL, USA). […] The radioactivity circulated for times between 1–10 min, after which the carotid artery was cut to collect blood. The mice were immediately decapitated and the whole brain was removed and weighed. The blood was centrifuged at 5400 g for 10 min and the amount of radioactivity in the serum (50 µL) and the whole brain was counted in a gamma counter (Wizard2, PerkinElmer, Waltham, MA, USA). Two separate cohorts of mice were combined in the final analyses. […] Naïve male mice were anesthetized as described.
(§2) The exposure time is calculated by the formula:(1) Exposure time=∫0tCptdt/Cpt where Cp(t) is the level of radioactivity (cpm) in the serum at time (t). The exposure time corrects for the clearance of peptide from the blood. […] The slope of the linearity measures the Ki and is reported with its standard error term. The y-intercept of the linearity measures the Vi, the initial volume of distribution in brain at t = 0 [11].

[2] = tested on: CD-1 mice; assay: Measurement of serum cytokines (Bio-Plex Pro Mouse Cytokine Assay); format: in vivo; conditions: 2 weeks rapamycin 8 mg/kg
Method: (§3) Following a 6 h fast, blood glucose was taken. The mice were anesthetized as described above, the thoracic cavity was opened, and blood was collected from the descending aorta. […] The brain vasculature was washed out by perfusing 20 mL of ice cold LR into the left ventricle of the heart. The brain was removed and split into the right and left hemispheres. The aorta was also removed. The blood was centrifuged at 5400 g for 10 min and the serum was collected. All the tissues were snap frozen in liquid nitrogen and stored at −80 °C until further processing.
A panel of 23 cytokines was measured in the brain protein lysate and serum using a mouse Bio-Plex Pro Mouse Cytokine Assay (Bio-Rad Laboratories): interleukin (IL)-1α; IL-1β; IL-2; IL-3; IL-4; IL-5; IL-6; IL-9; IL-10; IL-12(p40); IL-12(p70); IL-13; IL-17; eotaxin (CCL11); granulocyte colony-stimulating factor (G-CSF); granulocyte-macrophage colony-stimulating factor (GM-CSF); interferon (IFN)-γ; keratinocyte chemoattractant (KC) (CXCL1); monocyte chemoattractant protein (MCP)-1 (CCL2); macrophage inflammatory protein (MIP)-1α (CCL3); MIP-1β (CCL4); and regulated on activation, normal T cell expressed and secreted (RANTES; CCL5) and tumor necrosis factor (TNF)-α). The serum samples were diluted 1:4 with the kit sample diluent. The samples were measured according to the manufacturer and read on a Bio-Plex 200 (Bio-Rad Laboratories).

[3] = tested on: CD-1 mice; assay: Intravenous injection study with multiple-time regression analysis after chronic rapamycin treatment; conditions: for Vi (125I-insulin vascular binding) / Ki (125I-insulin BBB transport): rapamycin 8 mg/kg IP daily for 2 weeks, i.v. tracer
Method: (§4) The vehicle was prepared by creating a 1.2% DMSO solution in 5% Tween 80, 5% PEG 400.
as §1, §2

[4] = tested on: CD-1 mice; assay: Measurement of hormone levels in serum and brain lysate (Bio-Plex Pro Mouse Diabetes Assay); format: in vivo; conditions: 2 weeks rapamycin 8 mg/kg
Method: as §3
(§5) The right hemisphere was crushed with a mortar and pestle in liquid nitrogen and approximately 100 mg of tissue was homogenized in radioimmunoprecipitation assay (RIPA) buffer (150 mM NaCl, 0.5% deoxycholic acid, 0.1% sodium dodecyl sulfate (SDS), 20 mM Tris HCl, and 2 mM ethylenediaminetetraacetic acid (EDTA)) plus freshly added 1/100 dilutions of a protease inhibitor cocktail (Sigma-Aldrich), 1mM sodium orthovanadate, and a phosphatase inhibitor (1 tablet PhosSTOP per 10 mL buffer) (Roche, Basel, Switzerland). The aortas were homogenized in the same lysis buffer. The samples were sonicated at 40% amplitude prior to centrifugation at 12,000× g for 10 min at 4 °C. The supernatants were collected and frozen at −80 °C. The protein was measured using the Pierce BCA Protein Assay Kit (Thermo Fisher Scientific, Rockford, IL, USA).
A panel of 8 metabolic hormones was measured in the brain lysate and serum using a Bio-Plex Pro Mouse Diabetes Assay (Bio-Rad Laboratories, Hercules, CA, USA): ghrelin, glucose-dependent insulinotropic peptide (GIP), glucagon-like peptide-1 (GLP-1), glucagon, insulin, leptin, plasminogen activator inhibitor-1 (PAI-1), and resistin. The serum was diluted 1:4 with the kit diluent. Twenty µg/µL protein lysate samples were measured from the right hemisphere. The samples were measured according to the manufacturer and read on a Bio-Plex 200 (Bio-Rad Laboratories).

[5] = tested on: mice; conditions: cited from earlier work
Text: We observed a decrease in body weight only in males.

[6] = tested on: CD-1 mice; assay: Serum triglyceride levels after chronic rapamycin treatment; format: in vivo; conditions: two-week rapamycin treatment 8 mg/kg IP daily; males and females; n = 4/group
[7] = following an 8 mg/kg body weight IP injection; cited from earlier work
[8] = tested on: humans; conditions: 10 mg/day dose for 42 days as tolerated, patients with initial hyperlipidemic response; cited from earlier work
Text: (§6) Triglycerides were one mechanism we hypothesized rapamycin could impact insulin BBB transport. […] A study in humans reported an increase in the serum triglyceride levels by approximately 47% follow ...

[9] = tested on: mice; conditions: cited from earlier work; remark: listed apart in the source
Text: as §6

[10] = tested on: CD-1 mice; assay: Body weight and fasting blood glucose after chronic rapamycin treatment; format: in vivo
Method: as §4, §1

[11] = tested on: aorta; assay: Western immunoblotting of insulin signaling proteins in the aorta; format: in vivo, mice; conditions: 2 weeks rapamycin 8 mg/kg
Method: as §3
as §5, with “USA). […]” for “USA).”

[12] = tested on: CD-1 mice; assay: Transcardiac brain perfusion (absence of serum factors) after chronic rapamycin treatment; conditions: rapamycin 8 mg/kg IP daily for 2 weeks
Method: as §4
Perfusate was collected throughout the study to determine the average cpm/µL of perfusate. After perfusion, the whole brain was weighed and the amount of radioactivity was counted in a gamma counter (Wizard2, PerkinElmer). The brain/perfusate ratios were calculated by dividing the cpm in a gram of brain by the cpm in a µL of perfusate to yield the units of µL/g.
as §2

[13] = female CD-1 mice, transcardiac perfusion

CO[C@H]1C[C@@H]2CC[C@@H](C)[C@@](O)(O2)C(=O)C(=O)N2CCCC[C@H]2C(=O)O[C@H]([C@H](C)C[C@@H]2CC[C@@H](O)[C@H](OC)C2)CC(=O)[C@H](C)/C=C(\C)[C@@H](O)[C@@H](OC)C(=O)[C@H](C)C[C@H](C)/C=C/C=C/C=C/1C [Rapamycin]
Ki (unidirectional influx of 125I-insulin from blood to brain) ([1]; rapamycin 400 ng i.v. 10 min before 125I-insulin i.v., brain/serum ratio corrected with 99mTc-albumin, 1-10 min, slope ± standard error, gamma counter): 0.541 ± 0.13 µL/g/min
Vi (125I-insulin vascular binding) ([1]; rapamycin 400 ng i.v. 10 min before 125I-insulin i.v., y-intercept of regression, p = 0.02 vs vehicle): 10.1 ± 1.3 µL/g
rate of insulin BBB transport (Ki) ([1]; rapamycin 400 ng i.v. 10 min before tracer, p = 0.63 vs vehicle): 0.54 ± 0.1 µL/g/min
serum IL-2 levels ([2]; 6 h fast, p = 0.009, n = 3/group): increased
serum IL-17 levels ([2]; 6 h fast, p = 0.023, n = 3/group): increased
serum IL-3 levels ([2]; 6 h fast, treatment p = 0.004, post hoc in males p = 0.007, n = 3/group): increased significantly
serum TNF-α, RANTES, and GM-CSF levels ([2]; not statistically significant (0.05 < p < 0.07)): trend towards an increase
Vi (125I-insulin vascular binding) ([3]; female CD-1 mice): 9.9 ± 2.9 µL/g
Ki (125I-insulin BBB transport) ([3]; female CD-1 mice, linear regression not significant (ns)): 0.73 ± 0.34 µL/g/min
Vi (125I-insulin vascular binding) ([3]; male CD-1 mice): 4.0 ± 1.0 µL/g
Ki (125I-insulin BBB transport) ([3]; male CD-1 mice, slope ± standard error, p = 0.055 vs vehicle): 1.32 ± 0.19 µL/g/min
vascular marker 99mTc-albumin (BBB integrity) ([3]; two-week rapamycin treatment, data not shown): no effect
serum GLP-1 levels ([4]; 6 h fast, treatment p = 0.015, n = 4/group): significantly increased
serum resistin levels ([4]; males and females, 6 h fast, p < 0.0001, n = 4/group): significantly decreased
ghrelin, GIP, glucagon, or leptin levels ([4]; serum, 6 h fast, n = 4/group): no effect
brain insulin levels ([4]; whole brain lysate, treatment p = 0.034, post hoc p = 0.014, n = 3-4/group): significant differences in females only
glucose tolerance ([5]; 2 weeks of daily injections of a fourfold lower concentration than the current study): impair glucose tolerance
serum glucose levels ([5]; five weeks of daily rapamycin treatment, mice fasted overnight): increase
serum triglyceride levels [6]: did not elicit a significant change
blood rapamycin levels [7]: 100 ng/mL
increase in serum triglyceride levels [8]: approximately 47%
increase in serum triglyceride levels ([9]; growth hormone receptor knockout male mice, 4 mg/kg every other day for 20 weeks): approximately 12%
serum triglyceride levels ([9]; mice fed rapamycin orally): no differences were observed
body weight gain ([10]; 2 weeks of rapamycin 8 mg/kg IP daily, males n = 24-34, females n = 18-19): impacted body weight gain in males only
fasting blood glucose levels ([10]; females, 2 weeks rapamycin 8 mg/kg IP daily, 6 h fast, p = 0.19): did not have the same increase
mean fasting blood glucose levels ([10]; males, 2 weeks rapamycin 8 mg/kg IP daily, 6 h fast, p < 0.001 vs vehicle (157 mg/dL), n = 12-16/group): 226 mg/dL
MAPK protein expression relative to β-actin ([11]; males and females, treatment p = 0.006, n = 3-4/group): significant increase
phosphorylated Akt (pAkt Ser473) relative to total Akt ([11]; only in males, interaction p = 0.0918, n = 3-4/group): trend in decreased levels
Ki (125I-insulin BBB transport, absence of serum factors) [12, 13]: 1.89 ± 0.63 µL/g/min
Vi (125I-insulin vascular binding, absence of serum factors) [12, 13]: 8.3 ± 2.1 µL/g
Vi (125I-insulin vascular binding, absence of serum factors) ([12]; male CD-1 mice, transcardiac perfusion): 8.0 ± 1.7 µL/g
Ki (125I-insulin BBB transport, absence of serum factors) ([12]; male CD-1 mice, transcardiac perfusion 2 mL/min, 1-5 min, brain/perfusate ratio vs clock time): 1.35 ± 0.53 µL/g/min
